Laboratory results taken from ChEMBL document CHEMBL4507276 (2021).

What was measured:
[1] = target: Protein kinase C epsilon type (Homo sapiens) (UniProt Q02156); conditions: Compound concentration 1000.0 nM
[2] = target: T1, 5-hydroxytryptamine receptor 1A (Homo sapiens) (UniProt P08908); experiment: 5HT1A/H Cerep selectivity data (BI); conditions: Compound concentration 20.0 uM
T1 sequence (whole entry): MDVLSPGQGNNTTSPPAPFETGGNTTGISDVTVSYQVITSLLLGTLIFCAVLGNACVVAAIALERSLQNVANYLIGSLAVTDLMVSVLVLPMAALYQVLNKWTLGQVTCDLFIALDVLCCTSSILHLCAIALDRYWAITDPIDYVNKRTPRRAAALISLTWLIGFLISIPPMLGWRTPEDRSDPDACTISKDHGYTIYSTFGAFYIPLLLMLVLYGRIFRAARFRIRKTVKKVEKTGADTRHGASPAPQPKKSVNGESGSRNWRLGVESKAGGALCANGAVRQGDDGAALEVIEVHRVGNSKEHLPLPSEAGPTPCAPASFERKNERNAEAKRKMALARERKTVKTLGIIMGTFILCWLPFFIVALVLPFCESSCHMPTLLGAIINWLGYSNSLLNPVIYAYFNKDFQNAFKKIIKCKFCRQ

[3] = target: Androgen receptor (Homo sapiens) (UniProt P10275); experiment: ANDROGEN/H Cerep selectivity data (BI); conditions: Compound concentration 20.0 uM
Androgen receptor (Homo sapiens), sequence (P10275 whole entry): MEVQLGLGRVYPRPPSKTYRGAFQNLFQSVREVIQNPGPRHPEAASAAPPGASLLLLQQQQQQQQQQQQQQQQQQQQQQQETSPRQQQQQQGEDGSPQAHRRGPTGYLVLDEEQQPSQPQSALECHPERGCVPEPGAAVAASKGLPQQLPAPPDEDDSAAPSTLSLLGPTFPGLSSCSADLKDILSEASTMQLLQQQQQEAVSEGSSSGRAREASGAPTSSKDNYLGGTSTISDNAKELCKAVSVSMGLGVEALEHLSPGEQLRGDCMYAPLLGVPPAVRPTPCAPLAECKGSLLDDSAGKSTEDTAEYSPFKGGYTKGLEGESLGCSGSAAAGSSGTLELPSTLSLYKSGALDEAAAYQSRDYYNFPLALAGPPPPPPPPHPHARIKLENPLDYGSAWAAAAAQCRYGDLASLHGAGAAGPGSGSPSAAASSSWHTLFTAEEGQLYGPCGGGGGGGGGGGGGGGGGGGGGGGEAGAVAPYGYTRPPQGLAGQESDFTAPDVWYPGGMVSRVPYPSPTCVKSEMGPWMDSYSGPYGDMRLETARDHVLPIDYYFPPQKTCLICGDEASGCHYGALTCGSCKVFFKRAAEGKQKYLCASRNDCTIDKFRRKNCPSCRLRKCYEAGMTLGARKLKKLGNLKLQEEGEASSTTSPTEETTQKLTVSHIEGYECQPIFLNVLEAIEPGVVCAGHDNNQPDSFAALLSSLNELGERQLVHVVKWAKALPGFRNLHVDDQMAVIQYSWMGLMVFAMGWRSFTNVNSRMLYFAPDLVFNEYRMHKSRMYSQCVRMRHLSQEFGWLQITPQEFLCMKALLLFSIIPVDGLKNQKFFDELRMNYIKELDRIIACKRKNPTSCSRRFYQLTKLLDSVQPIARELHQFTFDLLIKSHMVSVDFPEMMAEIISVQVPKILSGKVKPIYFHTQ

[4] = target: Adenosine receptor A3 (Homo sapiens) (UniProt P0DMS8); experiment: A3/H Eurofins-Panlabs selectivity data (BI); conditions: Compound concentration 10.0 uM
[5] = target: Mitogen-activated protein kinase 14 (Homo sapiens) (UniProt Q16539); experiment: P38ALPHA_CE Cerep selectivity data (BI); conditions: Compound concentration 20.0 uM
Mitogen-activated protein kinase 14 (Homo sapiens), sequence (Q16539 whole entry, the tested form may be a part): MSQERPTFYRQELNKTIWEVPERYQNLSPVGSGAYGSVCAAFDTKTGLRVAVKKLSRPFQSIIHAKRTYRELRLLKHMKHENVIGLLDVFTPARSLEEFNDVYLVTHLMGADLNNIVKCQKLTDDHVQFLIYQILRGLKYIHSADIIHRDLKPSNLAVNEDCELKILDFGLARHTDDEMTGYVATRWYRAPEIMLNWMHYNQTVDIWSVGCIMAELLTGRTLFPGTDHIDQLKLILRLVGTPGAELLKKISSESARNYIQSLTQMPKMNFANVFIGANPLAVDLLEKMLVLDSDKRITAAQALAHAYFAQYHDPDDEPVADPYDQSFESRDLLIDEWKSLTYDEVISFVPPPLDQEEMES

[6] = target: Phosphatidylinositol 4-phosphate 3-kinase C2 domain-containing subunit alpha (Homo sapiens) (UniProt O00443); experiment: PIK3C2A Invitrogen selectivity data (BI); conditions: Compound concentration 3.0 uM
[7] = target: Endothelin receptor type B (Homo sapiens) (UniProt P24530); experiment: ETB/HUM Eurofins-Panlabs selectivity data (BI); conditions: Compound concentration 10.0 uM
[8] = target: Serine/threonine-protein kinase MARK2 (Homo sapiens) (UniProt Q7KZI7); experiment: MARK2 Invitrogen selectivity data (BI); conditions: Compound concentration 3.0 uM
Serine/threonine-protein kinase MARK2 (Homo sapiens), sequence (Q7KZI7 whole entry): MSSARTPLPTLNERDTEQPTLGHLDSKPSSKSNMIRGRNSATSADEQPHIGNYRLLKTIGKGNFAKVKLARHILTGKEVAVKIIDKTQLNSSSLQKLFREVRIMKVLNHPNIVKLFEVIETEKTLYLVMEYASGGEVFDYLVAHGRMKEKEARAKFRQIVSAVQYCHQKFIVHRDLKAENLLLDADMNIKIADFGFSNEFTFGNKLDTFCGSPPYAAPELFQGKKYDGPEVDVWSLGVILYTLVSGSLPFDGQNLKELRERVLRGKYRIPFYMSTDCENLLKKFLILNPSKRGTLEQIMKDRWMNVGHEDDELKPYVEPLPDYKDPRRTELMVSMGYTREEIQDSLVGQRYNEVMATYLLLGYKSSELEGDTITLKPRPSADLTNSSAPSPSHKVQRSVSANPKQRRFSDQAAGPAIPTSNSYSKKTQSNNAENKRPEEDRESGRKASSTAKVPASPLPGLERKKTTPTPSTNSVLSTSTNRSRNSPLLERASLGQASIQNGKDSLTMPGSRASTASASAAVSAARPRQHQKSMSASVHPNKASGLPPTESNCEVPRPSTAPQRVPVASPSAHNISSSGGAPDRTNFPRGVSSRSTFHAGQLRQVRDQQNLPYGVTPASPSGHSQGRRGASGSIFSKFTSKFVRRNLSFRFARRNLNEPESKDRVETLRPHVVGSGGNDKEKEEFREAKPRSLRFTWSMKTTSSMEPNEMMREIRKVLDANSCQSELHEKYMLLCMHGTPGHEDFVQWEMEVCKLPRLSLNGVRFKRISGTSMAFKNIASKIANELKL

[9] = target: Matrix metalloproteinase-9 (Homo sapiens) (UniProt P14780); experiment: MMP-9 (H) Cerep selectivity data (BI); conditions: Compound concentration 20.0 uM
[10] = target: Serine/threonine-protein kinase WNK2 (Homo sapiens) (UniProt Q9Y3S1); experiment: WNK2 Invitrogen selectivity data (BI); conditions: Compound concentration 3.0 uM
[11] = target: T2, Cytoplasmic tyrosine-protein kinase BMX (Homo sapiens) (UniProt P51813); experiment: BMX Invitrogen selectivity data (BI); conditions: Compound concentration 3.0 uM
T2 sequence (whole entry): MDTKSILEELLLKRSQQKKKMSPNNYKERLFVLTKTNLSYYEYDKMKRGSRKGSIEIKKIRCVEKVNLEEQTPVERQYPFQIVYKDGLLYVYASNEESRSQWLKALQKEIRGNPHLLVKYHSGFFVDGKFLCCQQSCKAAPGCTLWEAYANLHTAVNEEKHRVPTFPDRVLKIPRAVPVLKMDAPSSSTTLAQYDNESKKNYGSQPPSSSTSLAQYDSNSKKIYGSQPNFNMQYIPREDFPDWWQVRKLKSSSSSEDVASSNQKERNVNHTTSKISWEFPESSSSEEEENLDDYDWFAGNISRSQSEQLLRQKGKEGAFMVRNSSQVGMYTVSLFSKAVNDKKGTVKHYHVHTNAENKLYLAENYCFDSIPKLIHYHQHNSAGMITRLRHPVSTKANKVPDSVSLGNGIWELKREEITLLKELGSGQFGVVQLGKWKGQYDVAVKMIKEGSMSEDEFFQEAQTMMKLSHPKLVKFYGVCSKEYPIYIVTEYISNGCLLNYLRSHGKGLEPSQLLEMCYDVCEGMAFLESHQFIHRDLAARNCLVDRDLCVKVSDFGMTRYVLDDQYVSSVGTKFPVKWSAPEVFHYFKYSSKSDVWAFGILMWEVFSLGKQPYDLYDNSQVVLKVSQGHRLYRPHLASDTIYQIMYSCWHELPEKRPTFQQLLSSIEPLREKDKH

[12] = target: Serine/threonine-protein kinase 24 (Homo sapiens) (UniProt Q9Y6E0); experiment: STK24 Invitrogen selectivity data (BI); conditions: Compound concentration 3.0 uM
Serine/threonine-protein kinase 24 (Homo sapiens), sequence (Q9Y6E0 whole entry, looked up): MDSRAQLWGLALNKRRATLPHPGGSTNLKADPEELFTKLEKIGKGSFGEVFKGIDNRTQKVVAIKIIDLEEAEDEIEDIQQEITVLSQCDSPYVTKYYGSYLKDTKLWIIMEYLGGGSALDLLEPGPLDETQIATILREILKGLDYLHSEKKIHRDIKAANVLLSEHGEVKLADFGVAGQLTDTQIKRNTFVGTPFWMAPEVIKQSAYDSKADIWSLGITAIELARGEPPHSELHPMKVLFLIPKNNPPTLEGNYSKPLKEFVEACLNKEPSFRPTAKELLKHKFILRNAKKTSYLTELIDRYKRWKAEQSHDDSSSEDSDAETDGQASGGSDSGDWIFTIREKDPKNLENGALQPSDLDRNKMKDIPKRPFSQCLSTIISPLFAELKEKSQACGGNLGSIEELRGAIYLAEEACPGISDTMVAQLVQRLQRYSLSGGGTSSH

[13] = target: Interleukin-1 receptor type 1 (Mus musculus) (UniProt P13504); experiment: IL-1 Eurofins-Panlabs selectivity data (BI); conditions: Compound concentration 10.0 uM
Interleukin-1 receptor type 1 (Mus musculus), sequence (P13504 whole entry): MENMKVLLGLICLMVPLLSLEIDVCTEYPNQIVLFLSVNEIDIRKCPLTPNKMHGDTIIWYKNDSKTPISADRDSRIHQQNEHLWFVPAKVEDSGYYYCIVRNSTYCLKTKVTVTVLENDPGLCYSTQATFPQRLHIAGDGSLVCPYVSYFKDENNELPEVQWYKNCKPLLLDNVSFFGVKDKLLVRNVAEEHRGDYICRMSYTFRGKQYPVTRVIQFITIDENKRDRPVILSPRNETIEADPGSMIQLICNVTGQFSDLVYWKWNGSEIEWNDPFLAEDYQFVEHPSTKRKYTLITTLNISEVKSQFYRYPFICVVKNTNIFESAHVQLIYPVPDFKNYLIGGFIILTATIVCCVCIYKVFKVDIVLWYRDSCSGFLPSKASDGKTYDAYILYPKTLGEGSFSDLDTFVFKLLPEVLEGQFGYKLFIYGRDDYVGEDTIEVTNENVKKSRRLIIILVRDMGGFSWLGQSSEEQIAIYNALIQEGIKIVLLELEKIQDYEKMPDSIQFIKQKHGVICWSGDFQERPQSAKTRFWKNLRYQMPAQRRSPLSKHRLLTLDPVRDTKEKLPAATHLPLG

[14] = target: T3, TGF-beta receptor type-1 (Homo sapiens) (UniProt P36897); experiment: TGFBR1 Invitrogen selectivity data (BI); conditions: Compound concentration 3.0 uM
T3 sequence (whole entry): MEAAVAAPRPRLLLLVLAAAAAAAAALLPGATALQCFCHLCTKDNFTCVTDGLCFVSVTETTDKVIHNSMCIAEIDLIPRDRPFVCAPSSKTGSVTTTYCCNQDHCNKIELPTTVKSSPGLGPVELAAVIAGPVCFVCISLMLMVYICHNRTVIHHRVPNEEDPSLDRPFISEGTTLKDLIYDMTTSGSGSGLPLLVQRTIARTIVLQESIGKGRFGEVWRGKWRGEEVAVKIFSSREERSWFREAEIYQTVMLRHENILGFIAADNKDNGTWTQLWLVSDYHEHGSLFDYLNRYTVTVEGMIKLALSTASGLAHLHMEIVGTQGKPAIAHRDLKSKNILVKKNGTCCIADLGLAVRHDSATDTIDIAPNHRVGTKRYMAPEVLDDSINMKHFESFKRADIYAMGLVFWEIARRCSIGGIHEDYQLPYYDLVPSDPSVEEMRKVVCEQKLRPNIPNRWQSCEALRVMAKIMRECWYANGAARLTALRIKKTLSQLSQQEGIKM

[15] = target: Epidermal growth factor receptor (Homo sapiens) (UniProt P00533); experiment: EGF/HU Eurofins-Panlabs selectivity data (BI); conditions: Compound concentration 10.0 uM
Epidermal growth factor receptor (Homo sapiens), sequence (P00533 whole entry): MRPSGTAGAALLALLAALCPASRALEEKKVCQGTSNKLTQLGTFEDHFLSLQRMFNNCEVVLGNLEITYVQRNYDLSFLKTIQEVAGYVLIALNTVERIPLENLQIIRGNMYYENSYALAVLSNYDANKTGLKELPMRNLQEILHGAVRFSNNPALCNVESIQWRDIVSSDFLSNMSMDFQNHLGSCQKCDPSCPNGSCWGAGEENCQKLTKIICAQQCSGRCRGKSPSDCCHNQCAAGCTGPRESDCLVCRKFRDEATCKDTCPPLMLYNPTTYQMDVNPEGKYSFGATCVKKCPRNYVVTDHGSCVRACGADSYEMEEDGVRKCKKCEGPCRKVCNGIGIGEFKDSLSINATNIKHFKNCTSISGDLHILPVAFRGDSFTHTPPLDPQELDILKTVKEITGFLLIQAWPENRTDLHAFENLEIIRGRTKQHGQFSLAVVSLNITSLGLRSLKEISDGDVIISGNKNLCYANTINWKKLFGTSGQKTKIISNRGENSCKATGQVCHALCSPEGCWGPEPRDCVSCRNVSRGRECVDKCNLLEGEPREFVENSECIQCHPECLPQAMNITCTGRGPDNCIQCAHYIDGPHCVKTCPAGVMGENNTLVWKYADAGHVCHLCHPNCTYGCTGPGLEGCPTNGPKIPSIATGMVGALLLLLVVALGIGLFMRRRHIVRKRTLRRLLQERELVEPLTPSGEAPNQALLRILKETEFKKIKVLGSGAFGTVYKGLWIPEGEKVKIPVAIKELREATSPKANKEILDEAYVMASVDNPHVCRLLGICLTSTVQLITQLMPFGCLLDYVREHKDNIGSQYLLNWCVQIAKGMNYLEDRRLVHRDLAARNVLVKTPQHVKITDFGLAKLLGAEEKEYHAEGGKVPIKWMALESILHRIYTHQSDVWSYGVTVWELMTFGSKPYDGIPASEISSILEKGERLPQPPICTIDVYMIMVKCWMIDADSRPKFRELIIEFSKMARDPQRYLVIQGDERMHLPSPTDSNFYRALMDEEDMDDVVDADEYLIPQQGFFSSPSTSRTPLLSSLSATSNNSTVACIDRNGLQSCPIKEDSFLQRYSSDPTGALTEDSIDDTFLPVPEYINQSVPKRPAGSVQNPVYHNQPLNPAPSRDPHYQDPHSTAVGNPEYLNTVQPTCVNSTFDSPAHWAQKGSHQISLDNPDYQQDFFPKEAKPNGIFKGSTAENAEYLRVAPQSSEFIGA

[16] = target: Serine/threonine-protein kinase mTOR (Homo sapiens) (UniProt P42345); experiment: FRAP1 (MTOR) Invitrogen selectivity data (BI); conditions: Compound concentration 3.0 uM
[17] = target: Nicotinic acetylcholine receptor alpha-1/beta-1 (Homo sapiens) (UniProt P02708+P11230); experiment: NACH_BS_N/H Eurofins-Panlabs selectivity data (BI); format: protein-complex assay; conditions: Compound concentration 10.0 uM
[18] = target: ALK tyrosine kinase receptor (Homo sapiens) (UniProt Q9UM73); experiment: ALK Invitrogen selectivity data (BI); conditions: Compound concentration 3.0 uM

Measured: residual activity

Protein kinase C epsilon type (Homo sapiens), sequence (Q02156 whole entry): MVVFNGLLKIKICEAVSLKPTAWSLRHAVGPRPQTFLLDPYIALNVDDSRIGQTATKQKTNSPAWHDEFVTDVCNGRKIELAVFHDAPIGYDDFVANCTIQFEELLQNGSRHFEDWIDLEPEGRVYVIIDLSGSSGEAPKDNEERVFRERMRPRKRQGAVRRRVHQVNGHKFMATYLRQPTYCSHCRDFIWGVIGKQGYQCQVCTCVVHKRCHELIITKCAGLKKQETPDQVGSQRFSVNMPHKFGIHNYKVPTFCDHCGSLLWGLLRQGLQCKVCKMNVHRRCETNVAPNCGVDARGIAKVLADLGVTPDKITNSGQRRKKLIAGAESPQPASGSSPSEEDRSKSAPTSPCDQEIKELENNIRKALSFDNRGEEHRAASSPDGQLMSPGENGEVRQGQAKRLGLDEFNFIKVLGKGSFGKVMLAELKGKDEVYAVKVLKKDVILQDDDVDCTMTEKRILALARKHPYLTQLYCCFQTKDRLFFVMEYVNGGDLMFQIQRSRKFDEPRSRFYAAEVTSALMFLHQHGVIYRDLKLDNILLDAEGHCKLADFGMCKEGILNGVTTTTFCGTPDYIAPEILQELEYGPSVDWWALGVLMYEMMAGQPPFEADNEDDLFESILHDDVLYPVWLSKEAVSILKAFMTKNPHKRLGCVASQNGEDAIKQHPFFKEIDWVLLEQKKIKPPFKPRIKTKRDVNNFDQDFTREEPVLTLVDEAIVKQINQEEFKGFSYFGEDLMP

CN(C)C(=O)Cn1cc(-c2nc(C3(c4ccc(-c5cnc(N)nc5)cc4)CC3)no2)cn1 [BI 0153]
inactive: [1] 90%

CN(C)C(=O)Cn1cc(-c2nc([C@@](C)(c3ccc(-c4cnc(N)nc4)cc3)C3CC3)no2)cn1 [BI 665915]
inactive: [2] 77% | [3] 102% | [4] 88% | [5] 113% | [6] 104% | [7] 98% | [8] 98.5% | [9] 83% | [10] 96% | [11] 95% | [12] 100% | [13] 99% | [14] 96% | [15] 103% | [16] 104% | [17] 99% | [18] 97%
